# Experimental data as given in publication PMC11233931, “Remodeling tumor‐associated macrophage for anti‐cancer effects by rational design of irreversible inhibition of mitogen‐activated protein kinase‐activated protein kinase 2” (MedComm, 2024).
# Where two headings read alike, the source gives them in different places.
# Legend:
# Test in all cases: Eurofins kinase selectivity profile against 380 other human recombinant kinases (Table S2)
# Assay type in all cases: biochemical
# [1] = target: T1, 380 human recombinant protein kinases (Homo sapiens, UniProt P07333); conditions: Fms(h), read-out: Inhibition rate
# T1 construct: purchased Eurofins (Celle Lévescault)
# T1 sequence (P07333 20-972): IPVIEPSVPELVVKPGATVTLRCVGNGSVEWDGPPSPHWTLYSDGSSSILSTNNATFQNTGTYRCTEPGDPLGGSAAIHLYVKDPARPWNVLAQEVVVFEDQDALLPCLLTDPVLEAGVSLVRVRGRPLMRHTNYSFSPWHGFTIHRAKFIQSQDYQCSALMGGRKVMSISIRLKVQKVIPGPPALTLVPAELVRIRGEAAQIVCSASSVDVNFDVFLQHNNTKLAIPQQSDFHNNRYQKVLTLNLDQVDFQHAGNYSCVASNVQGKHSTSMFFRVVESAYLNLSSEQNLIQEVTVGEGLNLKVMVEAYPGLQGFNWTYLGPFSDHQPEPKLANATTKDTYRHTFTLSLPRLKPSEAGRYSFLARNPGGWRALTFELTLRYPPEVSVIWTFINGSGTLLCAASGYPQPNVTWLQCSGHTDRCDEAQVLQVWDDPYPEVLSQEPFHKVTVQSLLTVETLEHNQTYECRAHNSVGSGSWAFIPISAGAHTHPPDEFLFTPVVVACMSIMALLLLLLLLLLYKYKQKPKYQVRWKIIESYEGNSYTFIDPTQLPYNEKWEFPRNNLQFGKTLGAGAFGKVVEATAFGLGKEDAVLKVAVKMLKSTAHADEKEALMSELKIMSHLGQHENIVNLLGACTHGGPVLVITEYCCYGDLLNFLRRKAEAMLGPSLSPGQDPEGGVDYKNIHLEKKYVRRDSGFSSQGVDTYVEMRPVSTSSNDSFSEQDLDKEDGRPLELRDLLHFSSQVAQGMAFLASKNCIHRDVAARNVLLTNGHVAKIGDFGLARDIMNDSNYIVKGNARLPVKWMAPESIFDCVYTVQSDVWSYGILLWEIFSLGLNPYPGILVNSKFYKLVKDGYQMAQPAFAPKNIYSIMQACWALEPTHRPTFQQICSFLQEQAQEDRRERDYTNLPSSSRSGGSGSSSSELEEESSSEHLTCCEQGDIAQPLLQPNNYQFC
# Outline: (§1)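 Outsourced panel: 380 human recombinant kinases; inhibitor tested at various concentrations; purpose: MK2 selectivity check.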
# [2] = target: T2, 380 human recombinant protein kinases (Homo sapiens, UniProt P12931); conditions: for inhibition at 0.01 µM: 10 nM; for inhibition at 0.1 µM: 100 nM; for inhibition at 1 µM: 1000 nM
# T2 construct: purchased Eurofins (Celle Lévescault)
# T2 sequence (P12931 whole entry): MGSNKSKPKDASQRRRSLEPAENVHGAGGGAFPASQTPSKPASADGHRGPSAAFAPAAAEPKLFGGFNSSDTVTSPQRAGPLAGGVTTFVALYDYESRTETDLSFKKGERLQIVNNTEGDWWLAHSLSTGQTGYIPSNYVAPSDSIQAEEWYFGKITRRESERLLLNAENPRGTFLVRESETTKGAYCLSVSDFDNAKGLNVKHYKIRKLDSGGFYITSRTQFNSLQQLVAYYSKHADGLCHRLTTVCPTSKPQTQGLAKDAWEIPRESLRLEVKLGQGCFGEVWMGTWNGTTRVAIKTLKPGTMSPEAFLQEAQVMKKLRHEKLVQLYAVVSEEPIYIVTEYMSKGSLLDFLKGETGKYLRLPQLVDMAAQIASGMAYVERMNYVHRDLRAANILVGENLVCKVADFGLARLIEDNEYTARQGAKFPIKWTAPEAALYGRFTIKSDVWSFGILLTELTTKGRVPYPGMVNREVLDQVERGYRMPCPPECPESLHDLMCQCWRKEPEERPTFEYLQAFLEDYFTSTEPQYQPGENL
# Outline: as §1
# [3] = target: T3, 380 human recombinant protein kinases (Homo sapiens, UniProt Q96PY6); conditions: NEK1(h), read-out: Inhibition rate
# T3 construct: purchased Eurofins (Celle Lévescault)
# T3 sequence (Q96PY6 1-1258): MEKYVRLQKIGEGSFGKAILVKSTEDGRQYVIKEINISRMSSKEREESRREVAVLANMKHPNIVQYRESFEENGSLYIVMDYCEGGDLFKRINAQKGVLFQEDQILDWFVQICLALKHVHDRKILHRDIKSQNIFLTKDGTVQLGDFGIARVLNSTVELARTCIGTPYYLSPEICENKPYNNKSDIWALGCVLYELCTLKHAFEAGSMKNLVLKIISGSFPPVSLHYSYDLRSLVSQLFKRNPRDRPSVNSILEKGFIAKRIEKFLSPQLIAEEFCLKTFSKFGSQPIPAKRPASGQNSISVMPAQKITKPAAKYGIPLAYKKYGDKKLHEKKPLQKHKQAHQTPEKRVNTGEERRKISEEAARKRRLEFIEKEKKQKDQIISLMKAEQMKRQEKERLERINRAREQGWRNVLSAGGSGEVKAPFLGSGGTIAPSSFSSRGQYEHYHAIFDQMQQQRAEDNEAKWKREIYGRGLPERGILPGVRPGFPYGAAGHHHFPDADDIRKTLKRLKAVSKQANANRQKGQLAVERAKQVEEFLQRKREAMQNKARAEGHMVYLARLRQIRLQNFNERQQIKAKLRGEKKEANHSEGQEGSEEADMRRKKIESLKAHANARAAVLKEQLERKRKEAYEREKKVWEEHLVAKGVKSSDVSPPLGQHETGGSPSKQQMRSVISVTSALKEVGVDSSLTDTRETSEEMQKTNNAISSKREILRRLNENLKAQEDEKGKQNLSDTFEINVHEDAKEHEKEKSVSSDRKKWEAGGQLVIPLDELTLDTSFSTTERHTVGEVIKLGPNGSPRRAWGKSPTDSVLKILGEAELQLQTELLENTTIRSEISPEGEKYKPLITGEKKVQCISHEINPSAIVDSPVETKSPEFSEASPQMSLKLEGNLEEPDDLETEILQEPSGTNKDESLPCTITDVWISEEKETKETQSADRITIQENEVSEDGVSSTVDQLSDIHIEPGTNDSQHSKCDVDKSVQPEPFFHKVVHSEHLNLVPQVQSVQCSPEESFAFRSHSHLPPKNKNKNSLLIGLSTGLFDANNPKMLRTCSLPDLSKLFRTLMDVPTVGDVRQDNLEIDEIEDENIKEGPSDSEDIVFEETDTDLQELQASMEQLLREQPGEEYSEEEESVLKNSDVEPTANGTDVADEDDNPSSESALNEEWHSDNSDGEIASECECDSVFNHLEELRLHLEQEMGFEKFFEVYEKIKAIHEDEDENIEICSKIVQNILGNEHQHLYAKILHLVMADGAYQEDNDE
# Outline: as §1
# [4] = target: T4, 380 human recombinant protein kinases (Homo sapiens, UniProt Q9NSY1); conditions: BIKe(h), read-out: Inhibition rate
# T4 construct: purchased Eurofins (Celle Lévescault)
# T4 sequence (Q9NSY1 whole entry): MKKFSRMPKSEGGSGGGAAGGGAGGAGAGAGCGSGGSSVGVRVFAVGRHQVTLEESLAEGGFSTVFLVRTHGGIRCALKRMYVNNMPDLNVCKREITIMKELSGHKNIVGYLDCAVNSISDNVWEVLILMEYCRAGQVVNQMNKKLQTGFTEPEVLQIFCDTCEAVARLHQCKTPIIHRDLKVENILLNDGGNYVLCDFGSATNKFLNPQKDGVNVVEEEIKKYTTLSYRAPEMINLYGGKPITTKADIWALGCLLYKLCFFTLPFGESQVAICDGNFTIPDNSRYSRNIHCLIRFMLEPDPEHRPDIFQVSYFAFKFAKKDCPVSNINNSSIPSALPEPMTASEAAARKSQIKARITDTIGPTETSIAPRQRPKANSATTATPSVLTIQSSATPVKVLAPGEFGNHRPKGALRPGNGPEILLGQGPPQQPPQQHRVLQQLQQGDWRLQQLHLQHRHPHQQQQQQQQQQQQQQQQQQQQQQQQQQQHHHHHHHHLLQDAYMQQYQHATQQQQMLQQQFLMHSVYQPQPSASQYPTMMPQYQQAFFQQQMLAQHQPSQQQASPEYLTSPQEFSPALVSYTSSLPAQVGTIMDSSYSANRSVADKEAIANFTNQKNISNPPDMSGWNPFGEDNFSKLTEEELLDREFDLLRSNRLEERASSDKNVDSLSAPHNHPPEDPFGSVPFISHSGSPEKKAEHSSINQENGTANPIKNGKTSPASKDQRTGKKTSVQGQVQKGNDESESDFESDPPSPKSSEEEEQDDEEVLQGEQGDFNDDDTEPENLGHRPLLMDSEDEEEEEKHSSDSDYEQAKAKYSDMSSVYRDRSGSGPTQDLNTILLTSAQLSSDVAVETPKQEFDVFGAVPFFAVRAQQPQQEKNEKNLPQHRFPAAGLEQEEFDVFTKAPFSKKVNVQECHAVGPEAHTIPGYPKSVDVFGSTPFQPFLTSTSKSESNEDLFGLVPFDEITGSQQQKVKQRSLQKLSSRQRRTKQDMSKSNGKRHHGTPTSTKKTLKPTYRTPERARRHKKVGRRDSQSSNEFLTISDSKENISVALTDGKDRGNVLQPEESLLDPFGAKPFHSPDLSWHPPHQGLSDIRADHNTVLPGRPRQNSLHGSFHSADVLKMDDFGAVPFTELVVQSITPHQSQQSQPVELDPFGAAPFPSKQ
# Outline: as §1
# [5] = Src(1-530)(h), read-out: Inhibition rate (%)
# [6] = cSRC(h), read-out: Inhibition rate
structure (smiles),measurement,setting,value
C=CC(=O)Nc1cc(-c2cc(-c3cc4c([nH]3)CCNC4=O)ccn2)ccc1OC(F)(F)F [compound 11],inhibition at 0.01 µM,[1]; 10 nM,-8%
same,inhibition at 0.1 µM,[1]; 100 nM,-9%
same,inhibition at 1 µM,[1]; 1000 nM,-6%
same,inhibition at 0.01 µM,[2]; [5],6%
same,inhibition at 0.1 µM,[2]; [5],5%
same,inhibition at 1 µM,[2]; [5],-1%
same,inhibition at 0.01 µM,[2]; [6],1%
same,inhibition at 0.1 µM,[2]; [6],8%
same,inhibition at 1 µM,[2]; [6],10%
same,inhibition at 0.01 µM,[3]; 10 nM,-3%
same,inhibition at 0.1 µM,[3]; 100 nM,-1%
same,inhibition at 1 µM,[3]; 1000 nM,11%
same,inhibition at 0.01 µM,[4]; 10 nM,0%
same,inhibition at 0.1 µM,[4]; 100 nM,18%
same,inhibition at 1 µM,[4]; 1000 nM,48%
